Measured values: ChEMBL document CHEMBL3785008, “Piperine in food: interference in the pharmacokinetics of phenytoin” (Eur J Drug Metab Pharmacokinet, 2001)

Legend:
[1] = Tmax in healthy adult human subjects at 300 mg, po by HPLC method; format: ADME, organism-based; conditions: in vivo
[2] = Mean residence time in healthy adult human subjects at 300 mg, po dosed 30 minutes after ingestion of soup (melahu rasam) with black pepper by HPLC method; format: ADME, organism-based; conditions: in vivo
Homo sapiens [3] = test: Drug absorption in healthy adult human subjects at 300 mg, po dosed 30 minutes after ingestion of soup (melahu rasam) with black pepper by HPLC method; format: ADME, organism-based; conditions: in vivo, 0.5 h
[4] = Cmax in healthy adult human subjects at 300 mg, po by HPLC method; format: ADME, organism-based; design: dose 300 mg, route oral; conditions: in vivo
Homo sapiens [5] = test: Drug absorption in healthy adult human subjects at 300 mg, po by HPLC method; format: ADME, organism-based; conditions: in vivo
[6] = Mean residence time in healthy adult human subjects at 300 mg, po by HPLC method; format: ADME, organism-based; conditions: in vivo
[7] = Cmax in healthy adult human subjects at 300 mg, po dosed 30 minutes after ingestion of soup (melahu rasam) with black pepper by HPLC method; format: ADME, organism-based; design: dose 300 mg, route oral; conditions: in vivo
Homo sapiens [8] = test: Drug lag time in healthy adult human subjects at 300 mg, po by HPLC method; format: ADME, organism-based; conditions: in vivo
[9] = AUC (0 to 48 hrs) in healthy adult human subjects at 300 mg, po dosed 30 minutes after ingestion of soup (melahu rasam) with black pepper by HPLC method; format: ADME, organism-based; design: time < 48 hr, dose 300 mg, route oral; conditions: in vivo
Homo sapiens [10] = test: Volume of distribution in healthy adult human subjects at 300 mg, po dosed 30 minutes after ingestion of soup (melahu rasam) with black pepper by HPLC method; format: ADME, organism-based; conditions: in vivo, 0.5 h
[11] = AUC (0 to infinity) in healthy adult human subjects at 300 mg, po by HPLC method; format: ADME, organism-based; design: dose 300 mg, route oral, time infinity; conditions: in vivo
[12] = Elimination half life in healthy adult human subjects at 300 mg, po dosed 30 minutes after ingestion of soup (melahu rasam) with black pepper by HPLC method; format: ADME, organism-based; conditions: in vivo, read-out: beta t1/2 (converted)
[13] = AUC (0 to 10 hrs) in normal Swiss albino mouse at 10 mg, po by HPLC method; format: ADME, organism-based; design: time < 10 hr, dose 10 mg, route oral; conditions: in vivo
[14] = AUC (0 to infinity) in healthy adult human subjects at 300 mg, po dosed 30 minutes after ingestion of soup (melahu rasam) with black pepper by HPLC method; format: ADME, organism-based; design: dose 300 mg, time infinity, route oral; conditions: in vivo
Homo sapiens [15] = test: Drug lag time in healthy adult human subjects at 300 mg, po dosed 30 minutes after ingestion of soup (melahu rasam) with black pepper by HPLC method; format: ADME, organism-based; conditions: in vivo, 0.5 h
Mus musculus = test: Ratio of drug level in 0.6 mg, po piperine pre-treated Swiss albino mouse at 10 mg, po to drug level in normal Swiss albino mouse at 10 mg, po; format: ADME, organism-based; conditions: in vivo
[16] = Tmax in healthy adult human subjects at 300 mg, po dosed 30 minutes after ingestion of soup (melahu rasam) with black pepper by HPLC method; format: ADME, organism-based; conditions: in vivo
[17] = Elimination half life in healthy adult human subjects at 300 mg, po by HPLC method; format: ADME, organism-based; conditions: in vivo, read-out: beta t1/2 (converted)
[18] = AUC (0 to 10 hrs) in 0.6 mg, po piperine pre-treated Swiss albino mouse at 10 mg, po by HPLC method; format: ADME, organism-based; design: dose 0.6 mg, time < 10 hr, route oral; conditions: in vivo
[19] = AUC (0 to 48 hrs) in healthy adult human subjects at 300 mg, po by HPLC method; format: ADME, organism-based; design: time < 48 hr, dose 300 mg, route oral; conditions: in vivo
Homo sapiens [20] = test: Volume of distribution in healthy adult human subjects at 300 mg, po by HPLC method; format: ADME, organism-based; conditions: in vivo
[21] = Clearance in healthy adult human subjects at 300 mg, po dosed 30 minutes after ingestion of soup (melahu rasam) with black pepper by HPLC method; format: ADME, organism-based; conditions: in vivo
[22] = Clearance in healthy adult human subjects at 300 mg, po by HPLC method; format: ADME, organism-based; conditions: in vivo
[23] = Drug excretion in human urine assessed as hydroxyphenylphenylhydantoin and glucuronide conjugate level; format: ADME, tissue-based
[24] = Tmax in Swiss albino mouse serum at 0.3 mg, po by HPLC method; format: ADME, organism-based
[25] = AUC (0 to 12.5 hrs) in healthy adult human subjects after consumption of 44 mg equivalent of piperine in form of pepper in soup (melahu rasam) by HPLC method; format: ADME, organism-based; design: dose 44 mg, time < 12.5 hr; conditions: in vivo, po
[26] = Tmax in healthy adult human subjects after consumption of 44 mg equivalent of piperine in form of pepper in soup (melahu rasam) by HPLC method; format: ADME, organism-based; conditions: in vivo, po
[27] = Cmax in Swiss albino mouse serum at 0.3 mg, po by HPLC method; format: ADME, organism-based; design: dose 0.3 mg, route oral
[28] = AUC (0 to infinity) in healthy adult human subjects after consumption of 44 mg equivalent of piperine in form of pepper in soup (melahu rasam) by HPLC method; format: ADME, organism-based; design: dose 44 mg, time infinity; conditions: in vivo, po
[29] = Drug elimination rate constant in healthy adult human subjects after consumption of 44 mg equivalent of piperine in form of pepper in soup (melahu rasam) by HPLC method; format: ADME, organism-based; conditions: in vivo, po
Homo sapiens [30] = species: Homo sapiens; test: Drug absorption rate constant in healthy adult human subjects after consumption of 44 mg equivalent of piperine in form of pepper in soup (melahu rasam) by HPLC method; format: ADME, organism-based; conditions: in vivo, po
[31] = Cmax in healthy adult human subjects after consumption of 44 mg equivalent of piperine in form of pepper in soup (melahu rasam) by HPLC method; format: ADME, organism-based; design: dose 44 mg; conditions: in vivo, po

**Q.** Which Tmax [1] does the source give for `O=C1N=C([O-])NC1(c1ccccc1)c1ccccc1.[Na+]` [PHENYTOIN SODIUM] here?
**A.** The Tmax was 5.32 h.

**Q.** What about the MRT [2] of the same compound?
**A.** The MRT was 70.9 h.

**Q.** What about the ka (Homo sapiens [3]) of the same compound?
**A.** The ka was 1.177 h⁻¹.

**Q.** What about the Cmax [4] of the same compound?
**A.** Its Cmax is 3820 ng/mL.

**Q.** And the ka (Homo sapiens [5])?
**A.** Its ka is 0.666 h⁻¹.

**Q.** What about the MRT [6] of the same compound?
**A.** The MRT was 34.2 h.

**Q.** And the Cmax [7]?
**A.** The Cmax was 4310 ng/mL.

**Q.** And the Tlag (Homo sapiens [8])?
**A.** Its Tlag is 0.655 h.

**Q.** What about the AUC(0-t) at 48 h [9] of the same compound?
**A.** Its AUC(0-t) at 48 h is 153 µg·h/mL.

**Q.** And the Vd (Homo sapiens [10])?
**A.** Its Vd is 64.58 L.

**Q.** What about the AUC(0-inf) [11] of the same compound?
**A.** Its AUC(0-inf) is 143 µg·h/mL.

**Q.** And the half-life [12]?
**A.** The half-life was 49.7 h.

**Q.** What about the AUC(0-t) at 10 h [13] of the same compound?
**A.** The AUC(0-t) at 10 h was 716 µg·h/mL.

**Q.** What about the AUC(0-inf) [14] of the same compound?
**A.** The AUC(0-inf) was 332 µg·h/mL.

**Q.** What about the Tlag (Homo sapiens [15]) of the same compound?
**A.** The Tlag was 0.168 h.

**Q.** And the Ratio (Mus musculus)?
**A.** The Ratio was 1.8.

**Q.** What about the Tmax [16] of the same compound?
**A.** The Tmax was 3.38 h.

**Q.** And the half-life [17]?
**A.** Its half-life is 22.5 h.

**Q.** And the AUC(0-t) at 10 h [18]?
**A.** Its AUC(0-t) at 10 h is 891 µg·h/mL.

**Q.** What about the AUC(0-t) at 48 h [19] of the same compound?
**A.** Its AUC(0-t) at 48 h is 102 µg·h/mL.

**Q.** And the Vd (Homo sapiens [20])?
**A.** The Vd was 65.02 L.

**Q.** And the CL/F [21]?
**A.** The CL/F was 15.9 mL/min.

**Q.** And the CL/F [22]?
**A.** The CL/F was 41.3 mL/min.

**Q.** For `O=C1NC(=O)C(c2ccccc2)(c2ccccc2)N1` [PHENYTOIN], which Drug excretion [23] is on record?
**A.** Its Drug excretion is 60%.

**Q.** For `O=C(/C=C/C=C/c1ccc2c(c1)OCO2)N1CCCCC1` [PIPERINE], which Tmax [24] is on record?
**A.** The Tmax was 6 h.

**Q.** And the AUC(0-t) at 12.5 h [25]?
**A.** The AUC(0-t) at 12.5 h was 3.37 µg·h/mL.

**Q.** What about the Tmax [26] of the same compound?
**A.** The Tmax was 2.5 h.

**Q.** What about the Cmax [27] of the same compound?
**A.** Its Cmax is 5470 ng/mL.

**Q.** And the AUC(0-inf) [28]?
**A.** The AUC(0-inf) was 5.3 µg·h/mL.

**Q.** And the k el [29]?
**A.** The k el was 2.22e-05 s⁻¹.

**Q.** What about the ka (Homo sapiens [30]) of the same compound?
**A.** Its ka is 1.41 h⁻¹.

**Q.** And the Cmax [31]?
**A.** Its Cmax is 400 ng/mL.
